Results on two molecules are retold here after patent US10624917B2, “Compositions and methods useful for treating or preventing liver diseases or disorders, and promoting weight loss” (YALE UNIVERSITY, priority 2014, dated 2020).

In experiment [1] the test system is Il1b and other genes in PECs. As to the kind of experiment: Quantitative real-time RT-PCR gene expression in PECs. Format: cell-based, mouse. Particulars: peritoneal macrophages, FIG. 2E. On the technique in general: Quantitative PCR measures a nucleic acid by following its amplification.
Experiment [2] concerns HRE promoter luciferase construct in THP-1 cells. Description: HRE-promoter luciferase reporter assay in THP-1 cells. Format: cell-based, human. Particulars: LPS/PMA primed 16 hours, treatment over 8 hours. An excerpt:
FIGS. 4A-4H illustrate the finding that adenosine mediates increase in pro-IL-1β via a HIF-1α-dependent pathway. FIG. 4A: Consensus NFκB and HRE binding sites in the IL-1β promoter. FIG. 4B: LPS primed PECs obtained from A2AR-cKO and controls were stimulated with or without NECA or CGS21680. FIG. 4C: LPS primed PECs obtained from HIF-1α-cKO and controls were stimulated with or without NECA at time points as indicated. Cells were harvested and RNA isolated after each treatment and gene expression of Il1b and Hif1α quantified by real-time PCR. FIG. 4D: THP-1 cells were transfected with HRE-promoter luciferase construct and β-galactosidase plasmid in the presence or absence of CREB dominant negative plasmid (CREBΔ), and then primed with LPS/PMA followed by NECA. […] Luciferase activities were measured and normalized to β-galactosidase activity and normalized with controls. […] Luciferase activities were measured and normalized to Rluc activity and the normalized value with controls as indicated. […] IL-1β was measured in cell supernatant by ELISA. Data are expressed as the mean±SD from three independent experiments. […] HIF-1α, pro-caspase-1, Caspase-1 and pro-IL-1β was measured in cell supernatant by western blot Immunoblots shown are representative results from at least three independent experiments. […]

Experiment [3] deals with wild type C57BL/6 mice treated with LPS. Description: LPS/D-galactosamine liver injury with adenosine agonist. Format: in vivo, mouse. On the procedure:
FIGS. 14A-14F illustrate increase in serum ALT and changes in liver gene expression in mice treated with LPS in the presence or absence of adenosine agonist. Wild type C57BL/6 mice were injected intraperitoneally with LPS (1 μg/mouse). 16 hours later mice received NECA (2.5 mg kg^−1 body weight) and D-galactosamine (500 mg kg^−1) by IP for 2 hours following liver tissue and serum collection. Serum ALT was determined (FIG. 14A), and the gene expression of Il1β (FIG. 14B), Il6 (FIG. 14C), Hif1α (FIG. 14D), Nlrp3 (FIG. 14E), and tnfα (FIG. 14F) was quantified by real-time PCR using each specific gene primer set as listed. Data are expressed as the mean±SD from 6 mice in each treatment group. *p<0.05 determined by Student's t-test.
The results recited herein show a requirement for adenosine signaling via the A2A receptor for maximal production of IL-1β by macrophages in vitro. With tissue inflammation and injury extracellular adenosine levels are known to increase by a variety of means from the basal levels below 1 μM to levels up to […]. It was tested whether A2A receptor driven inflammasome activity was relevant in vivo; two models of liver injury was used: one acute LPS driven model where liver injury was assessed in 6 hours after LPS, and a second model of sterile injury by a toxic metabolic insult to the liver by thioacetamide (TAA) in which injury was examined at days 1, 2 and 7. A2AR-cKO mice that specifically delete Adora2a gene in macrophages were used. Liver immune populations were intact in these mice (FIG. 13). […] To test the effect of increasing adenosine signaling in vivo, wild-type mice were treated with LPS in the presence or absence of the adenosine agonist NECA.

Regarding `CCNC(=O)[C@H]1O[C@@H](n2cnc3c(N)nc(NCCc4ccc(CCC(=O)O)cc4)nc32)[C@H](O)[C@@H]1O` [CGS21680], the “induction of Il1b mRNA expression” value in experiment [1] is “increases”.
Consider `CCNC(=O)[C@H]1O[C@@H](n2cnc3c(N)ncnc32)[C@H](O)[C@@H]1O` [NECA, 5′-(N-ethylcarboxamido) adenosine], for which the “HRE reporter luciferase activity” value in experiment [2] is “resulted in HRE reporter luciferase activity”. Moreover, in experiment [3], the “serum ALT” value was “significant elevation”, the “whole liver transcript of Hif1a” value is given as “significant elevation”, the “whole liver transcript of Il1b” value is “significant elevation” and the “whole liver transcript of Il6” value is on record as “significant elevation”. In addition, in experiment [3], the “whole liver transcript of Nlrp3” value is “significant elevation” and the “whole liver transcript of tnfa” value is given as “reduction”.
